Experimental findings from US8324227B2, “Thieno[2,3-D]-pyrimidin-4(3H)-one compounds with antifungal properties and process thereof” (FDC Limited, priority 2008, dated 2012) are described below.

A word on the MIC: it is the lowest concentration found to suppress growth.

Experiment in all cases: Antifungal susceptibility, MIC by broth macro-dilution method
Experiment [1] deals with C. albicans (ATCC 24433). The class given is cell-based, Candida albicans. The conditions noted are these: Candida albicans, ATCC24433, RPMI 1640 medium with MOPS buffer, end points after 48 hours, NI till x = no inhibition up to x, read-out: MIC against fungi, C. albicans (ATCC 24433). How it is done:
(§1) In vitro evaluation of antifungal activity was performed by determining the minimum inhibitory concentration (MIC). Anti-fungal susceptibility testing of these anti-fungal compounds was done by broth dilution method using RPMI 1640 medium with MOPS buffer. Known anti-fungal agents like fluconazole and amphotericin-B were used as positive control. End points were determined after 48 hours visually and by using spectrophotometer wherever necessary. Different dilutions were, tried and various sets of experiments performed.

For experiment [2], the system named is A. niger (ATCC 16404). The class given is cell-based, Aspergillus niger. The conditions noted are these: Aspergillus niger, ATCC16404, RPMI 1640 medium with MOPS buffer, end points after 48 hours, NI till x = no inhibition up to x, read-out: MIC against fungi, A. niger (ATCC 16404). How it is done: as §1
In experiment [3] the test system is F. proliferatum (ATCC 10052). The class given is cell-based, Fusarium proliferatum. The following applies: Fusarium proliferatum, ATCC10052, RPMI 1640 medium with MOPS buffer, end points after 48 hours, NI till x = no inhibition up to x, read-out: MIC against fungi, F. proliferatum (ATCC 10052). On the procedure: as §1

Each structure is given as a SMILES string. Values after ≈ are worked out from the molar mass of the structure shown.

As for `NCC(=O)OCCCCc1cc2c(=O)n(CC(O)(Cn3cncn3)c3ccc(F)cc3F)cnc2s1` (stereo not drawn) [Compound 1-A25, 3-[2-(2,4-Difluorophenyl)-2-hydroxy-3-[1,2,4]-triazol-1-yl-propyl]-6-(4-aminoacetyloxybutyl)-thieno[2,3-d]pyrimidin-4(3H)-one], the MIC in experiment [1] was 4 to 8 µg/mL (≈ 7.71 to 15.4 µM); in experiment [2], over 8 µg/mL; in experiment [3] it was over 8 µg/mL.
Take `CC(=O)OCCCc1cc2c(=O)n(CC(O)(Cn3cncn3)c3ccc(F)cc3F)cnc2s1` (stereo not drawn) [Compound 1-A26, 3-[2-(2,4-Difluorophenyl)-2-hydroxy-3-[1,2,4]-triazol-1-yl-propyl]-6-(3-acetoxypropyl)-thieno[2,3-d]pyrimidin-4(3H)-one]: the MIC in experiment [1] was 1 to 2 µg/mL (≈ 2.04 to 4.09 µM); in experiment [2], over 64 µg/mL; in experiment [3], over 64 µg/mL.
Regarding `O=c1c2cc(CCCO)sc2ncn1CC(O)(Cn1cncn1)c1ccc(F)cc1F` (stereo not drawn) [Compound 1-A27, 3-[2-(2,4-Difluorophenyl)-2-hydroxy-3-[1,2,4]-triazol-1-yl-propyl]-6-(3-hydroxypropyl)-thieno[2,3-d]pyrimidin-4(3H)-one], the figures for the MIC in experiment [1], in experiment [2] and in experiment [3] were 2 to 4 µg/mL (≈ 4.47 to 8.94 µM), over 128 µg/mL and over 128 µg/mL, respectively.
Take `Cc1cc2c(=O)n(CC(O)(Cn3cncn3)c3ccc(F)cc3F)cnc2s1` (stereo not drawn) [Compound 1-A28, 3-[2-(2,4-Difluorophenyl)-2-hydroxy-3-[1,2,4]-triazol-1-yl-propyl]-6-methylthieno[2,3-d]pyrimidin-4(3H)-one]: the MIC is 0.25 to 0.5 µg/mL (≈ 0.62 to 1.24 µM) in experiment [1], over 64 µg/mL in experiment [2] and over 64 µg/mL in experiment [3].
For `OC(Cn1cncn1)(Cn1cncn1)c1ccc(F)cc1F` [Fluconazole, reference compound], the MIC was 0.25 to 1 µg/mL (≈ 0.816 to 3.27 µM) in experiment [1], 64 to 128 µg/mL (≈ 209 to 418 µM) in experiment [2] and over 128 µg/mL in experiment [3].
